Values quoted from earlier work as cited in patent US20200390702A1, “LIPOSOMAL TAXANES FOR TREATMENT OF SCLC” (Plus Therapeutics, Inc., priority 2017, published 2020).
Read-outs that look alike come from different tables or passages of the source.

Tested on: SCLC
Conditions: intravenous

In the case of `CC[C@@]1(O)C(=O)OCc2c1cc1n(c2=O)Cc2cc3c(CN(C)C)c(O)ccc3nc2-1` [Topotecan], the response rate (chemotherapy-refractory relapsed cases) is given as 4.0% and the response rate (chemotherapy-sensitive relapsed cases) is given as 20.4%.
